Earlier results, collected in paper PMC5560747, “Computational-experimental approach to drug-target interaction mapping: A case study on kinase inhibitors” (PLoS Computational Biology, 2017).

Columns and labels:
Design in all cases: method as in Gao et al. [42]
Details in all cases: ref Gao et al. [42], cited from earlier work
[1] = target: BRK (Homo sapiens, UniProt Q13882)
[2] = target: T1, AXL (Homo sapiens, UniProt P30530)
T1 sequence (P30530 26-894): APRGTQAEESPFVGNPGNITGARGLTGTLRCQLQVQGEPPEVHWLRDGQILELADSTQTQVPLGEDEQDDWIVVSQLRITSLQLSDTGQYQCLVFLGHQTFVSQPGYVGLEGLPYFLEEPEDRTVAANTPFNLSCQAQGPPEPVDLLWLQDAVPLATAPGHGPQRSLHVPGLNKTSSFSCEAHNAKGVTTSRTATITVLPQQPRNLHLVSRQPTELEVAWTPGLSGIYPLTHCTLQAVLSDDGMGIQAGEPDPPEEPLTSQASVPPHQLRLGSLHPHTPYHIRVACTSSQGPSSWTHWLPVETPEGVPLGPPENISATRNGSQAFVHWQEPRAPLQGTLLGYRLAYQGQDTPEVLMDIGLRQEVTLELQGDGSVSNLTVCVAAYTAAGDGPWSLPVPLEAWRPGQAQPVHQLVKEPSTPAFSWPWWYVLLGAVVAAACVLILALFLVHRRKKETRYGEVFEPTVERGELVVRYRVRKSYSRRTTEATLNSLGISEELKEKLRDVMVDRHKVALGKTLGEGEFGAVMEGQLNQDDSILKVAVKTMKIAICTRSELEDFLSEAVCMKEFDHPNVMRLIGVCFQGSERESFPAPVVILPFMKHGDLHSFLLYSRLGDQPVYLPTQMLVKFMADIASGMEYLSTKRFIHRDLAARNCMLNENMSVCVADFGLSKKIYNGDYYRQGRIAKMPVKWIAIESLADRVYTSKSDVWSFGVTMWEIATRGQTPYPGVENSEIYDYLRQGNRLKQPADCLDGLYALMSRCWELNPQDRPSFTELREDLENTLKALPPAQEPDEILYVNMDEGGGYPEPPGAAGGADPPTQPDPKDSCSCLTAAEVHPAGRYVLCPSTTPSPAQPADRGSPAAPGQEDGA

[3] = test system: ALK
[4] = test system: FMS
[5] = test system: CAMK2D

BRK, sequence (Q13882 whole entry): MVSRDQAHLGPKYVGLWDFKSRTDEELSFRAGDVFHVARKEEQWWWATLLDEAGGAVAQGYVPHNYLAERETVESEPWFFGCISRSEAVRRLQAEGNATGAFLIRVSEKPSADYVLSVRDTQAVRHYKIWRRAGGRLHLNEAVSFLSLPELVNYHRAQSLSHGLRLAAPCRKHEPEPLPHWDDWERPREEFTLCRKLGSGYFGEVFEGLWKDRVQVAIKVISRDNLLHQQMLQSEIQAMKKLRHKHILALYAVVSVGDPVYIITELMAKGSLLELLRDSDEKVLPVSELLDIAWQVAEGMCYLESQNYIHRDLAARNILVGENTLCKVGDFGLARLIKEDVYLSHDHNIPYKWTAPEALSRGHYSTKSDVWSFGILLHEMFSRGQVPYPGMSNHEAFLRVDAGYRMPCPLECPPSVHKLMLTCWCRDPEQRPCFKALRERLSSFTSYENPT

COc1cc2nccc(Oc3ccc(NC(=O)Nc4cc(C)on4)c(Cl)c3)c2cc1OC [TIVOZANIB, Tivozanib]
Gao et al. % of activity remaining at 1 µM ([1]; 1 µM): 2% | Gao et al. % of activity remaining at 10 µM ([1]; 10 µM): -1% | Gao et al. % of activity remaining at 1 µM ([2]; 1 µM): 12% | Gao et al. % of activity remaining at 10 µM ([2]; 10 µM): 10% | Gao et al. % of activity remaining at 1 µM ([3]; 1 µM): 83% | Gao et al. % of activity remaining at 10 µM ([3]; 10 µM): 38% | Gao et al. % of activity remaining at 1 µM ([4]; 1 µM): 0% | Gao et al. % of activity remaining at 10 µM ([4]; 10 µM): 0% | Gao et al. % of activity remaining at 1 µM ([5]; 1 µM): 102% | Gao et al. % of activity remaining at 10 µM ([5]; 10 µM): 90%
